According to patent US7767812B2, “Crystals of pyrimidine compound and process for producing the same” (Eisai R&D Management Co., Ltd., priority 2005, dated 2010):

Assay: Solubility in Disintegration Test 2nd fluid (Test Example 1)
Settings: approx. 50 mg in 500 mL Disintegration Test 2nd fluid (Japanese pharmacopoeia, 14th Edition), paddles 50 rpm, concentration by HPLC over time (FIG. 17); compared with crystal form B
Experimental: First, 500 mL of the 2nd fluid was stirred at 50 rpm with paddles (Toyama Co., Ltd.; DISSOLUTION TESTER), then after the crystals and amorphous compound were added, the solution was sampled at each time period. The sampled solutions were filtered through a filter (0.2 μm), and the concentration of 5-[2-amino-4-(2-furyl)pyrimidin-5-yl]-1-methylpyridin-2(1H)-one in the solution was measured by HPLC method. The conditions for HPLC method are shown below.
Column: CAPCELL PAK C18 AQ, S-5 μm, 4.6 mm ID×250 mm length (Shiseido, Japan)
Column temperature: a constant temperature around 30° C.
Detection wavelength: 262 nm
Solution A: acetonitrile/water/1M ammonium acetate (10:1000:1, v/v/v)
Solution B: acetonitrile/water/1M ammonium acetate (900:100:1, v/v/v)

SMILES	solubility
Cn1cc(-c2cnc(N)nc2-c2ccco2)ccc1=O.O [hydrate crystals, 5-[2-amino-4-(2-furyl)pyrimidin-5-yl]-1-methylpyridin-2(1H)-one hydrate]	superior in solubility than the crystal form B
Cn1cc(-c2cnc(N)nc2-c2ccco2)ccc1=O [crystal form C, 5-[2-amino-4-(2-furyl)pyrimidin-5-yl]-1-methylpyridin-2(1H)-one]	superior in solubility than the crystal form B
